Assay results reported in PubChem BioAssay AID743141 (Broad Institute, 2013).
Active and inactive are the calls of the source.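 The calls were made as follows: active = compounds that cut viability of the normal-p53 cell line panel with an IC50 under 10 µM; inactive = IC50 above 10 µM.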

Assays:
Assay in all cases: cell killing across TP53 wild-type lines, dose response, selectivity assay for cell-selective anticancer agent project, TP53 wild-type panel, dry powder (AID 743141)
[1] = system: HCT116 viability, CellTiter-Glo luminescence, 48 h
[2] = system: IMR90 viability, CellTiter-Glo luminescence, 48 h
[3] = system: A549 viability, CellTiter-Glo luminescence, 48 h

| SMILES | IC50 [1] [µM] | IC50 [2] [µM] | IC50 [3] |
| --- | --- | --- | --- |
| C[C@@H]1CC(=O)NN=C1c1ccc(F)c(F)c1 | > 10 | > 10 | > 10 µM (inactive) |
| C[C@@H]1CC(=O)NN=C1c1ccc(C2CCCCC2)cc1 | > 10 | > 10 | > 10 µM (inactive) |
| CCN(CC)c1ccc(C2=NNC(=O)CC2C)cc1[N+](=O)[O-] (stereo unspecified) | > 10 | > 10 | > 10 µM (inactive) |
| C[C@@H]1CC(=O)NN=C1c1ccc(-c2cncnc2)cc1 | > 10 | > 10 | > 10 µM (inactive) |
| COc1cc2c(cc1OC)-c1cc(=Nc3c(C)cc(C)cc3C)n(C)c(=O)n1CC2 | > 10 | > 10 | > 10 µM (inactive) |
| C[C@@H]1CC(=O)NN=C1c1ccc(Cl)cc1 | > 10 | > 10 | > 10 µM (inactive) |
| O=C1CN2Cc3c(ccc(Cl)c3Cl)N=C2N1 | > 10 | > 10 | > 10 µM (inactive) |
| CC(=O)Nc1ccc(C2=NNC(=O)C[C@H]2C)cc1 | > 10 | > 10 | > 10 µM (inactive) |
| CCN1N=C(c2ccc(N(CC)CC)cc2)[C@H](C)CC1=O | > 10 | > 10 | > 10 µM (inactive) |
| C[C@@H]1CC(=O)NN=C1c1ccc(N2CCOCC2)cc1 | > 10 | > 10 | > 10 µM (inactive) |
| C[C@H]1CC(=O)NN=C1c1ccc(N2CCOCC2)c(F)c1 | > 10 | > 10 | > 10 µM (inactive) |
| C[C@@H]1CC(=O)NN=C1c1ccc(N2CCOCC2)c(F)c1 | > 10 | > 10 | > 10 µM (inactive) |
